# Laboratory results as given in ChEMBL document CHEMBL3885861, “Open TG-GATES”.
# Species: Rattus norvegicus
# Assay: Open TG-GATES - Regimen: Single
# Assay type: toxicity, organism-based, Sprague-Dawley
# Design: regimen Single, gender Male, age 6 weeks
# Settings: in vivo, po, 0 mg/kg, route gavage, dose level Control; for APTT / Bas / Eos / Fbg / Hb / Ht / Lym / MCH / MCHC / MCV / Mono / Neu / PT / Plat / RBC / Ret / WBC: tissue Blood; for KIDNEY_TOTAL: tissue Kidney; for LIVER: tissue Liver; for A/G / ALP / ALT / AST / BUN / CRE / Ca / Cl / DBIL / GLC / IP / K / LDH / Na / PL / RALB / TBIL / TC / TG / TP / gamma-GTP: tissue Plasma
smiles,measurement,setting,value
CN(CCOc1ccc(CC2SC(=O)NC2=O)cc1)c1ccccn1.O=C(O)/C=C\C(=O)O (centres undefined) [ROSIGLITAZONE MALEATE],TERMINAL_BW,3 h,206.3 g
same,APTT,3 h,15.8 s
same,Bas,3 h,0%
same,Eos,3 h,0.6%
same,Fbg,3 h,216.8 mg/dL
same,Hb,3 h,13.1 g/dL
same,Ht,3 h,39.7%
same,Lym,3 h,75.6%
same,MCH,3 h,21.4 pg
same,MCHC,3 h,33.1%
same,MCV,3 h,64.7 fL
same,Mono,3 h,9.2%
same,Neu,3 h,14.4%
same,PT,3 h,12 s
same,Plat,3 h,123.6 x10_4/uL
same,RBC,3 h,614 x10_4/ul
same,Ret,3 h,8.6%
same,WBC,3 h,110.6 x10_2/uL
same,KIDNEY_TOTAL,3 h,0.6 g
same,LIVER,3 h,9.7 g
same,A/G,3 h,2.3
same,ALP,3 h,1326.2 IU/L
same,ALT,3 h,36.6 IU/L
same,AST,3 h,71 IU/L
same,BUN,3 h,13 mg/dL
same,CRE,3 h,0.3 mg/dL
same,Ca,3 h,11.4 mg/dL
same,Cl,3 h,104.2 meq/L
same,DBIL,3 h,0.012 mg/dL
same,GLC,3 h,195.6 mg/dL
same,IP,3 h,8.6 mg/dL
same,K,3 h,4.4 meq/L
same,LDH,3 h,82 IU/L
same,Na,3 h,139.8 meq/L
same,PL,3 h,138.2 mg/dL
same,RALB,3 h,3.7 g/dL
same,TBIL,3 h,0.046 mg/dL
same,TC,3 h,76 mg/dL
same,TG,3 h,71.4 mg/dL
same,TP,3 h,5.4 g/dL
same,gamma-GTP,3 h,0.6 IU/L
same,TERMINAL_BW,6 h,205.9 g
same,APTT,6 h,15.9 s
same,Bas,6 h,0%
same,Eos,6 h,1.2%
same,Fbg,6 h,220.2 mg/dL
same,Hb,6 h,13.2 g/dL
same,Ht,6 h,40%
same,Lym,6 h,80.2%
same,MCH,6 h,21.6 pg
same,MCHC,6 h,32.9%
same,MCV,6 h,65.7 fL
same,Mono,6 h,4.4%
same,Neu,6 h,14.6%
same,PT,6 h,12.2 s
same,Plat,6 h,117 x10_4/uL
same,RBC,6 h,609.4 x10_4/ul
same,Ret,6 h,9.7%
same,WBC,6 h,92.8 x10_2/uL
same,KIDNEY_TOTAL,6 h,0.7 g
same,LIVER,6 h,9.7 g
same,A/G,6 h,2.3
same,ALP,6 h,1368.6 IU/L
same,ALT,6 h,35.6 IU/L
same,AST,6 h,66.6 IU/L
same,BUN,6 h,10.4 mg/dL
same,CRE,6 h,0.3 mg/dL
same,Ca,6 h,11.3 mg/dL
same,Cl,6 h,104.2 meq/L
same,DBIL,6 h,0.01 mg/dL
same,GLC,6 h,183.4 mg/dL
same,IP,6 h,8.9 mg/dL
same,K,6 h,4.4 meq/L
same,LDH,6 h,79.2 IU/L
same,Na,6 h,138.6 meq/L
same,PL,6 h,143.4 mg/dL
same,RALB,6 h,3.7 g/dL
same,TBIL,6 h,0.05 mg/dL
same,TC,6 h,83.6 mg/dL
same,TG,6 h,70.4 mg/dL
same,TP,6 h,5.3 g/dL
same,gamma-GTP,6 h,1 IU/L
same,TERMINAL_BW,9 h,204 g
same,APTT,9 h,15.7 s
same,Bas,9 h,0%
same,Eos,9 h,0.6%
same,Fbg,9 h,221.4 mg/dL
same,Hb,9 h,12.8 g/dL
same,Ht,9 h,39.1%
same,Lym,9 h,73.4%
same,MCH,9 h,21.6 pg
same,MCHC,9 h,32.9%
same,MCV,9 h,65.6 fL
same,Mono,9 h,7.8%
same,Neu,9 h,18.4%
same,PT,9 h,11.9 s
same,Plat,9 h,123 x10_4/uL
same,RBC,9 h,597 x10_4/ul
same,Ret,9 h,9%
same,WBC,9 h,93.6 x10_2/uL
same,KIDNEY_TOTAL,9 h,0.7 g
same,LIVER,9 h,8.8 g
same,A/G,9 h,2.4
same,ALP,9 h,1162.4 IU/L
same,ALT,9 h,34.2 IU/L
same,AST,9 h,68.8 IU/L
same,BUN,9 h,10.8 mg/dL
same,CRE,9 h,0.3 mg/dL
same,Ca,9 h,11 mg/dL
same,Cl,9 h,104.8 meq/L
same,DBIL,9 h,0.01 mg/dL
same,GLC,9 h,184 mg/dL
same,IP,9 h,10 mg/dL
same,K,9 h,4.5 meq/L
same,LDH,9 h,85 IU/L
same,Na,9 h,139.8 meq/L
same,PL,9 h,137.4 mg/dL
same,RALB,9 h,3.8 g/dL
same,TBIL,9 h,0.046 mg/dL
same,TC,9 h,87.6 mg/dL
same,TG,9 h,45.2 mg/dL
same,TP,9 h,5.4 g/dL
same,gamma-GTP,9 h,1 IU/L
same,TERMINAL_BW,24 h,219.8 g
same,APTT,24 h,16.5 s
same,Bas,24 h,0%
same,Eos,24 h,1%
same,Fbg,24 h,225 mg/dL
same,Hb,24 h,12.8 g/dL
same,Ht,24 h,38.9%
same,Lym,24 h,79.4%
same,MCH,24 h,21.5 pg
same,MCHC,24 h,32.8%
same,MCV,24 h,65.6 fL
same,Mono,24 h,5.2%
same,Neu,24 h,14.4%
same,PT,24 h,11.7 s
same,Plat,24 h,124.2 x10_4/uL
same,RBC,24 h,593 x10_4/ul
same,Ret,24 h,8%
same,WBC,24 h,92.8 x10_2/uL
same,KIDNEY_TOTAL,24 h,0.7 g
same,LIVER,24 h,10.7 g
same,A/G,24 h,2.3
same,ALP,24 h,1499.4 IU/L
same,ALT,24 h,38.4 IU/L
same,AST,24 h,66.4 IU/L
same,BUN,24 h,15.4 mg/dL
same,CRE,24 h,0.4 mg/dL
same,Ca,24 h,11.5 mg/dL
same,Cl,24 h,104 meq/L
same,DBIL,24 h,0.016 mg/dL
same,GLC,24 h,188.4 mg/dL
same,IP,24 h,7.7 mg/dL
same,K,24 h,4.4 meq/L
same,LDH,24 h,97 IU/L
same,Na,24 h,140.4 meq/L
same,PL,24 h,164.2 mg/dL
same,RALB,24 h,3.9 g/dL
same,TBIL,24 h,0.038 mg/dL
same,TC,24 h,94.4 mg/dL
same,TG,24 h,107 mg/dL
same,TP,24 h,5.6 g/dL
same,gamma-GTP,24 h,1 IU/L
